As a reminder, the EC50 is the concentration needed to bring the measured effect to its halfway point. Low values mean a more potent agent, high ones a less potent agent.

Structures are written as SMILES.

For this test, the target named is T1, NLRP3 inflammasomes (Homo sapiens, UniProt Q96P20).
T1 construct: endogenous in cells; host or cells: THP-1 human monocytic cells, PMA-differentiated, LPS-primed, nigericin-stimulated
T1 sequence (Q96P20 whole entry): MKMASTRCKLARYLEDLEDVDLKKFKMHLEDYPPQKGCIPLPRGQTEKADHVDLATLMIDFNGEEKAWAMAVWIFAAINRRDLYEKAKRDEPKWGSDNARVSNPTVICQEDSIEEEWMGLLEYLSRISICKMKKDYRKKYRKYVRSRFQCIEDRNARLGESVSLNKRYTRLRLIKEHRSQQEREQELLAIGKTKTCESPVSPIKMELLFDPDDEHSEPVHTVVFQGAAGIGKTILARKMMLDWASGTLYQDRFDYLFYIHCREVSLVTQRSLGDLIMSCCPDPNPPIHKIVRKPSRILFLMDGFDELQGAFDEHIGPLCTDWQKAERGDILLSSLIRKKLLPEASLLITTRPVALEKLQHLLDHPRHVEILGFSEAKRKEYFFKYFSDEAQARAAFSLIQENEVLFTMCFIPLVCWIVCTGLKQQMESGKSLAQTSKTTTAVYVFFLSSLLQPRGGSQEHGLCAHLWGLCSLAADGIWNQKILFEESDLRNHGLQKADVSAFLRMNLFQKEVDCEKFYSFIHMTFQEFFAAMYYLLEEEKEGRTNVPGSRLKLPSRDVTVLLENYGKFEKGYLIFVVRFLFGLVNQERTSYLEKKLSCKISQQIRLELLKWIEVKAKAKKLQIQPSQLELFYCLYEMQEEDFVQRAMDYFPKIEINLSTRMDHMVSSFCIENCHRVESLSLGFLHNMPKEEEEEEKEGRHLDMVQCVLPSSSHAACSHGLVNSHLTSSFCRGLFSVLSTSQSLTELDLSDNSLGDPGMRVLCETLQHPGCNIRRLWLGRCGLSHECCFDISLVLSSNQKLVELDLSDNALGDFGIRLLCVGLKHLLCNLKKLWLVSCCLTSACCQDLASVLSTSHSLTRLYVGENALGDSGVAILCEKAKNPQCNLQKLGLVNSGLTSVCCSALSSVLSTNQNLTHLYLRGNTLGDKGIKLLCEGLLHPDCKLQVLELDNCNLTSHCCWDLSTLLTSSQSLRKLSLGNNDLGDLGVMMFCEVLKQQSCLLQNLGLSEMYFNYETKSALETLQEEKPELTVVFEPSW
The experiment in a line: THP-1 pyroptosis test (cell pyroptosis test). To be noted: THP-1 cells differentiated with PMA, LPS stimulation, 10 μM nigericin, drug 0.001-10 μM, MTT absorbance 562 nm. Type of test: cell-based. Here is the method: In vitro activity screening was performed on small molecule compounds targeting inhibition on NLRP3 inflammasomes using THP-1 human monocytic cells (THP-1). THP-1 can be induced to differentiate into macrophages by phorbol ester (PMA), and the macrophages M1 can be induced to polarize by lipopolysaccharide (LPS) to release cytokines such as TNF-α, and IL-6, so as to establish a typical inflammatory model.
THP-1 cells in a logarithmic growth phase were collected to prepare a 1×10^6 cells/mL cell suspension, PMA was added to achieve a final concentration of 300 ng/mL in the cell suspension, then 1×10^5 cells were inoculated to each well of a 96-well plate, and the cells were cultured in a 37° C., 5% CO2 cell incubator for 24 hours and induced to differentiate into macrophages.
The next day, LPS was added to stimulate and induce the cells to produce an inflammatory model. […] In the 200 μL system of the 96-well plate, the final concentration of each drug was 0.001-10 μM, and the final concentration of the nigericin was 10 μM.
Cell apoptosis protection rate=[(X−C0)/(C−C0)]×100%
wherein, C, C0 and X represent average absorbance values of the normal cell group, the blank control group, and the drug treatment group, respectively. Finally, cell survival curves were fitted by Graphpad Prism 5.0 software and EC50 values of the compounds to be tested in inhibiting pyroptosis caused by NLRP3 inflammasomes were calculated.
For `Cc1ccc2c(N[C@@H]3CCCN(C)C3)nnc(-c3ccc(C(F)(F)F)cc3O)c2c1` [Compound 3, (R)-2-(7-methyl-4-((1-methylpiperidin-3-yl)amino)phthalazin-1-yl)-5-(trifluoromethyl)phenol], the EC50 is below 0.02 µM.
As to `Cc1ccc2c(-c3ccc(C(F)(F)F)cc3O)nnc(N[C@@H]3CCCN(C)C3)c2c1` [Compound 4, (R)-2-(6-methyl-4-((1-methylpiperidin-3-yl)amino)phthalazin-1-yl)-5-(trifluoromethyl)phenol], the EC50 is below 0.02 µM.
On to `COc1ccc2c(N[C@@H]3CCCN(C)C3)nnc(-c3ccc(C(F)(F)F)cc3O)c2c1` [Compound 5, (R)-2-(7-methoxy-4-((1-methylpiperidin-3-yl)amino)phthalazin-1-yl)-5-(trifluoromethyl)phenol], for which the EC50 was below 0.02 µM.
Consider `COc1ccc2c(-c3ccc(C(F)(F)F)cc3O)nnc(N[C@@H]3CCCN(C)C3)c2c1` [Compound 6, (R)-2-(6-methoxy-4-((1-methylpiperidin-3-yl)amino)phthalazin-1-yl)-5-(trifluoromethyl)phenol], for which the EC50 is below 0.02 µM.
Next, `C[C@@H](Nc1nnc(-c2ccc(C(F)(F)F)cc2O)c2ccccc12)c1ccccc1` [Compound 7, (R)-2-(4-((1-phenylethyl)amino)phthalazin-1-yl)-5-(trifluoromethyl)phenol]: above 1 µM; `C[C@H](Nc1nnc(-c2ccc(C(F)(F)F)cc2O)c2ccccc12)c1ccccc1` [Compound 8, (S)-2-(4-((1-phenylethyl)amino)phthalazin-1-yl)-5-(trifluoromethyl)phenol]: above 1 µM; `C[C@@H](Nc1nnc(-c2ccc(C(F)(F)F)cc2O)c2ccccc12)c1ccc(F)cc1` [Compound 9, (R)-2-(4-((1-(4-fluorophenyl)ethyl)amino)phthalazin-1-yl)-5-(trifluoromethyl)phenol]: above 1 µM.
Then `C[C@H](Nc1nnc(-c2ccc(C(F)(F)F)cc2O)c2ccccc12)c1ccc(F)cc1` [Compound 10, (S)-2-(4-((1-(4-fluorophenyl)ethyl)amino)phthalazin-1-yl)-5-(trifluoromethyl)phenol], with above 1 µM; and `CCCCNc1nnc(-c2ccc(C(F)(F)F)cc2O)c2ccccc12` [Compound 11, 2-(4-(butylamino)phthalazin-1-yl)-5-(trifluoromethyl)phenol], with above 1 µM; and `C[C@@H](Nc1nnc(-c2ccc(C(F)(F)F)cc2O)c2ccccc12)c1ccccn1` [Compound 12, (R)-2-(4-((1-(pyridin-2-yl)ethyl)amino)phthalazin-1-yl)-5-(trifluoromethyl)phenol], with above 1 µM.
Next, `C[C@H](Nc1nnc(-c2ccc(C(F)(F)F)cc2O)c2ccccc12)c1ccccn1` [Compound 13, (S)-2-(4-((1-(pyridin-2-yl)ethyl)amino)phthalazin-1-yl)-5-(trifluoromethyl)phenol]: above 1 µM; `CN1CCC[C@@H](Nc2nnc(-c3ccc(C(F)(F)F)cc3O)c3cc(F)ccc23)C1` [Compound 16, 2-(7-fluoro-4-{[(3R)-1-methylpiperidin-3-yl]amino}phthalazin-1-yl)-5-(trifluoromethyl)phenol]: below 0.02 µM.
`CN1CCC[C@@H](Nc2nnc(-c3ccc(C(F)(F)F)cc3O)c3ccncc23)C1` [Compound 17] came in with an EC50 below 0.02 µM.
Then `CN(C)[C@H]1CC[C@H](Nc2nnc(-c3ccc(C(F)(F)F)cc3O)c3ccccc23)CC1` [Compound 18], with 0.5 to 1 µM.
Next, `CN(C)[C@H]1CC[C@@H](Nc2nnc(-c3ccc(C(F)(F)F)cc3O)c3ccccc23)CC1` [Compound 19]: 0.5 to 1 µM; `CC(C)(O)CNc1nnc(-c2ccc(C(F)(F)F)cc2O)c2ccccc12` [Compound 20, 2-(4-((2-hydroxy-2-methylpropyl)amino)phthalazin-1-yl)-5-(trifluoromethyl)phenol]: above 1 µM; `Oc1cc(C(F)(F)F)ccc1-c1nnc(NCCN2CCOCC2)c2ccccc12` [Compound 21, 2-(4-((2-morpholinylethyl)amino)phthalazin-1-yl)-5-(trifluoromethyl)phenol]: above 1 µM.
Then `Oc1cc(C(F)(F)F)ccc1-c1nnc(N[C@@H]2CCCNC2)c2ccccc12` [Compound 22, (R)-2-(4-(piperidin-3-ylamino)phthalazin-1-yl)-5-(trifluoromethyl)phenol], with below 0.02 µM.
The compound `CCN1CCC[C@@H](Nc2nnc(-c3ccc(C(F)(F)F)cc3O)c3ccccc23)C1` [Compound 23, (R)-2-(4-((1-ethylpiperidin-3-yl)amino)phthalazin-1-yl)-5-(trifluoromethyl)phenol] returned an EC50 below 0.02 µM.
Compound `CN1CC[C@@H](Nc2nnc(-c3ccc(C(F)(F)F)cc3O)c3ccccc23)C1` [Compound 24, (R)-2-(4-((1-methylpyrrolidin-3-yl)amino)phthalazin-1-yl)-5-(trifluoromethyl)phenol] showed an EC50 below 0.02 µM.
Then `CCN1CC[C@@H](Nc2nnc(-c3ccc(C(F)(F)F)cc3O)c3ccccc23)C1` [Compound 25, (R)-2-(4-((1-ethylpyrrolidin-3-yl)amino)phthalazin-1-yl)-5-(trifluoromethyl)phenol], with below 0.02 µM.
In turn, `CN1CCC[C@@H]1CNc1nnc(-c2ccc(C(F)(F)F)cc2O)c2ccccc12` [Compound 26] came in with an EC50 of 0.5 to 1 µM.
The compound `CCN1CCC[C@@H]1CNc1nnc(-c2ccc(C(F)(F)F)cc2O)c2ccccc12` [Compound 27, (R)-2-(4-(((1-ethylpyrrolidin-2-yl)methyl)amino)phthalazin-1-yl)-5-(trifluoromethyl)phenol] had an EC50 of 0.5 to 1 µM.
Take `CCN1CCC[C@H]1CNc1nnc(-c2ccc(C(F)(F)F)cc2O)c2ccccc12` [Compound 28]: the concentration giving a half-maximal response (EC50) was 0.1 to 0.5 µM.
Then `Oc1cc(C(F)(F)F)ccc1-c1nnc(N[C@@H]2CCc3ncccc32)c2ccccc12` [Compound 29, (R)-2-(4-((6,7-dihydro-5H-cyclopenta[b]pyridin-5-yl)amino)phthalazin-1-yl)-5-(trifluoromethyl)phenol], with 0.02 to 0.1 µM; and `Oc1cc(C(F)(F)F)ccc1-c1nnc(N[C@H]2CCc3ncccc32)c2ccccc12` [Compound 30, (S)-2-(4-((6,7-dihydro-5H-cyclopenta[b]pyridin-5-yl)amino)phthalazin-1-yl)-5-(trifluoromethyl)phenol], with 0.02 to 0.1 µM.
Next, `CN1CCC[C@@H](Nc2nnc(-c3ccccc3O)c3ccccc23)C1` [Compound 31, (R)-2-(4-((1-methylpiperidin-3-yl)amino)phthalazin-1-yl)phenol]: 0.5 to 1 µM.
Next, `CC(=O)N1CCC[C@@H](Nc2nnc(-c3ccc(C(F)(F)F)cc3O)c3ccccc23)C1` [Compound 32, (R)-1-(3-((4-(2-hydroxy-4-(trifluoromethyl)phenyl)phthalazin-1-yl)amino)piperidin-1-yl)ethane-1-one]: 0.02 to 0.1 µM.
Compound `CN1CCC(Nc2nnc(-c3ccc(C(F)(F)F)cc3O)c3ccccc23)CC1` [Compound 35, 2-(4-((1-methylpiperidin-4-yl)amino)phthalazin-1-yl)-5-(trifluoromethyl)phenol] had an EC50 of 0.5 to 1 µM.
Take `CN1CCC[C@@H](Nc2nnc(-c3ccc(C(F)(F)F)cc3O)c3ncn(C)c23)C1` [Compound 36, (R)-2-(1-methyl-7-((1-methylpiperidin-3-yl)amino)-1H-imidazo[4,5-d]pyridazin-4-yl)-5-(trifluoromethyl)phenol]: the EC50 was in the range of 0.5 to 1 µM.
